Measurements published in patent publication US20210130826A1, “METHODS OF MODULATING ANTISENSE ACTIVITY” (IONIS PHARMACEUTICALS, INC., priority 2018, published 2021).

Key:
Malat-1 [1] = test: Malat-1 RNA by RT-qPCR in MHT cells; autophagy modulator, then oligonucleotide by free uptake; format: cell-based, mouse
Description: MHT cells (a mouse hepatocellular carcinoma cell line) were plated at 20,000 cells/well and treated with DMSO (control) or an autophagy modulator for 24 hours at the concentrations indicated in Table 2 below. 3-MA, BafA1, AZD8055, and leupeptin are […]. […] Fourteen hours after the addition of autophagy modulators, 10 μM of a modified control oligonucleotide or of a modified antisense oligonucleotide was added by free uptake for ten hours. The modified oligonucleotides, shown in Table 1 below, are 3-10-3 cEt gapmers in which every internucleoside linkage is a phosphorothioate internucleoside linkage. The three 5′-terminal nucleosides and the three 3′-terminal nucleosides of each oligonucleotide each comprise a cEt modified sugar moiety. The remaining ten nucleosides of each oligonucleotide each comprise an unmodified, 2′-deoxy sugar moiety.
Using the primer probe sets described in Table 3 below, RT-qPCR analysis was performed to detect RNA levels of Malat-1, shown in Table 4 and markers of autophagy, (Rab7, LAMP2, Atg7, ULK1, ULK2, Atg5, Beclin, and c-Jun), shown in Table 5. Results were normalized to cyclophilin A levels. To control for global effects of autophagy modulators on gene expression, Malat-1 RNA levels after treatment with an antisense oligonucleotide and an autophagy modulator were normalized to Malat-1 RNA levels in cells treated with control Compound No. 549148 and the same autophagy modulator.
MHT cells were plated at 20,000 cells/well and treated with DMSO (control) or an autophagy modulator for 24 hours, at the concentrations indicated Table 7 below. Fourteen hours after the addition of autophagy modulator, control or antisense oligonucleotides (see Table 6) were added at 1 μM, 2.5 μM, 5 μM, or 10 μM by free uptake for ten hours. The modified oligonucleotides, shown in Table 6 below, are 5-10-5 MOE gapmers in which every internucleoside linkage is a phosphorothioate internucleoside linkage. The five 5′-terminal nucleosides and the five 3′-terminal nucleosides of each oligonucleotide each comprise a 2′-MOE modified sugar moiety. The remaining ten nucleosides of each oligonucleotide each comprise an unmodified, 2′-deoxy sugar moiety.
RT-qPCR analysis was performed to detect RNA levels of Malat-1 using primer probe set 15877 (described in Example 1). In order to control for global effects of autophagy modulators on gene expression, Malat-1 RNA levels after treatment with an antisense oligonucleotide and an autophagy modulator were normalized to Malat-1 RNA levels in cells treated with control Compound No. 141923 and the same autophagy modulator. Each table below represents results from an individual assay.

[2] = system: mTOR kinase activity (pS6/S6 levels); test: Liver protein analysis in mice: pS6/S6; format: in vivo; settings: Table 30; mouse liver 24 h; oligonucleotide 5 mg/kg (or PBS); Treatment AZD8055 5 mg/kg at 0, 12, 22 h
Description: The following experiments were performed to determine if the effects of autophagy modulators on antisense activity in vitro can be observed in vivo. […] Following administration of modified oligonucleotide, mice were administered 1% DMSO or 5 mg/kg AZD8055 in 1% DMSO at three time points over 24 hours: at the time of administration of the modified oligonucleotide, and 12 and 22 hours after administration of the modified oligonucleotide. A group of control mice was administered PBS at time 0 and 1% DMSO at 0, 12, and 22 hours. Mice were sacrificed at 24 hours after administration of the modified oligonucleotide and tissues were collected for analysis.
Protein analysis was carried out on liver tissue using standard procedures. All proteins were normalized to α-tubulin. […] The antibody against LC3B (ab48394) was purchased from Abcam. […] Antibody against P62 (GP62-C) was purchased from Progen.
A group of control mice was administered PBS at time 0 and 1% DMSO at 0, 12, and 22 hours. Mice were sacrificed at 24 hours after administration of the modified oligonucleotide and tissues were collected for analysis. […]

Malat-1 [3] = test: MALAT-1 RNA in mouse liver by RT-qPCR; format: in vivo
Description: The following experiments were performed to determine if the effects of autophagy modulators on antisense activity in vitro can be observed in vivo. […] Mice were sacrificed at 24 hours after administration of the modified oligonucleotide and tissues were collected for analysis. […] Atg7 mRNA levels are a marker of the induction of autophagy in treated mouse livers. Results are presented as percent change of RNA, relative to PBS control treated with DMSO, normalized to mouse cyclophilin A measured using mouse primer probe set Cyclophilin-A (forward sequence [NT], designated herein as SEQ ID NO: 38; reverse sequence [NT], designated herein as SEQ ID NO: 39; probe sequence [NT], designated herein as SEQ ID NO: 40). […] Following administration of modified oligonucleotide, groups of mice were either allowed free access to chow (control) or fasted overnight (16 hr fast). Mice were sacrificed at 16 hours after administration of the modified oligonucleotide and tissues were collected for analysis. […] Atg7 mRNA levels are a marker of the induction of autophagy in treated mouse livers. Results are presented in Table 33 relative to mice treated with PBS and allowed normal access to chow. […] Mice were sacrificed at 24 hours after administration of the modified oligonucleotide and tissues were collected for analysis. […] Atg7 mRNA levels are a marker of the induction of autophagy in treated mouse livers. […] RNA was extracted from liver tissue for real-time RTPCR analysis of MALAT1 RNA expression. Primer probe set 15877 was used to measure mouse MALAT1 RNA levels. Results are presented as percent change of RNA, relative to PBS control, normalized to mouse cyclophilin A measured using mouse primer probe set Cyclophilin-A. […] RNA was extracted from liver tissue for real-time RTPCR analysis of MALAT1 RNA expression. Primer probe set 15877 was used to measure mouse MALAT1 RNA levels. Results are presented as percent change of RNA, relative to PBS control, normalized to mouse cyclophilin A measured using mouse primer probe set Cyclophilin-A.

## COc1ccc(-c2ccc3c(N4CCOC[C@@H]4C)nc(N4CCOC[C@@H]4C)nc3n2)cc1CO [AZD8055]
Malat-1 [1]; MOE gapmer 399462, relative to DMSO
  effect of autophagy modulator on modified oligonucleotide activity (in words): significantly enhanced modified oligonucleotide activity
Malat-1 [1]; cEt gapmer 556089, relative to DMSO
  effect of autophagy modulator on antisense activity (in words): significantly enhanced antisense activity
[2]
  pS6/S6 ratio: 0.2
Malat-1 [3]; Table 31, mouse liver 24 h, oligonucleotide 5 mg/kg, AZD8055 5 mg/kg at 0, 12, 22 h
  Malat-1 level (% relative to PBS/DMSO-treated mice): 121%
Malat-1 [3]; mouse liver, 399462 5 mg/kg, AZD8055 5 mg/kg
  effect on ASO activity in vivo (in words): greater Malat1 RNA reduction
